Laboratory results reported in patent publication US6174896A, “Quinuclidine derivatives and medicinal composition thereof” (Yamanouchi Pharmaceutical Co., Ltd., priority 1994, dated 2001).

System: oxotremorine-induced salivary secretion
Experiment: Test on salivary secretion in rat
Assay type: in vivo
Details: urethane-anesthetized male Wistar rat, oxotremorine 0.8 μmol/kg
Experimental: A male Wistar rat (160-190 g) was subjected to anesthesia with urethane (0.8 g/kg i.p.), and the test compound was administered (to the control group: solvent). Fifteen minutes later, 0.8 μmol/kg of oxotremorine was administered. In each case, the drug was administered through its femoral artery. The saliva secreted for 5 minutes after the administration of oxotremorine was collected and weighed. The inhibition ratio against the amount of saliva in the control group was determined and the dose of the test compound required for 50% inhibition of the amount of saliva in the control group was designated as ID50.

Structure (SMILES): CN1[C@@H]2CC[C@H]1C[C@@H](OC(=O)C(CO)c1ccccc1)C2 (stereo partly shown) [atropine]
- ID50 value (salivary secretion) compared with ED30 value (rhythmic bladder contraction): substantially the same
